How the values were obtained:
[1] = tested on: SUDIPGVI (diffuse intrinsic pontine glioma line); assay: EC50 (inflection of fitted growth-inhibition curve) (log10 M)
Method in brief: (§1)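 A pin tool was used to add a 10-point threefold dilution series (mean top concentration 35 μM), in triplicate, to patient-derived pHGG/DIPG cell lines and astrocyte controls seeded on 384-well plates coated with 1% Geltrex. After 7 days at 37 °C and 5% CO2 (3 days for iAstro), CellTiter-Glo luminescence was log2-transformed, normalised on each plate to % activity relative to negative (solvent) and positive control wells, and pooled. EC50 and maximal response (yFin) were read from the three- or four-parameter log-logistic fit with the lowest AICc.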

[2] = tested on: DIPGX7 (H3.3 K27M diffuse intrinsic pontine glioma line); assay: as above
Method in brief: as §1

[3] = tested on: HGGX6 (H3.3 G34R paediatric high-grade glioma line); assay: as above
Method in brief: as §1

[4] = tested on: HABS (astrocyte control); assay: as above
Method in brief: as §1

[5] = tested on: DIPGX9 (diffuse intrinsic pontine glioma line); assay: as above
Method in brief: as §1

[6] = tested on: HGGX39 (paediatric high-grade glioma line); assay: as above
Method in brief: as §1

[7] = tested on: DIPGX29 (H3.3 K27M diffuse intrinsic pontine glioma line); assay: as above
Method in brief: as §1

[8] = tested on: SUDIPGXIX (diffuse intrinsic pontine glioma line); assay: as above
Method in brief: as §1

[9] = tested on: SUDIPGIV (diffuse intrinsic pontine glioma line); assay: as above
Method in brief: as §1

[10] = tested on: DIPGX37 (H3.3 K27M diffuse intrinsic pontine glioma line); assay: as above
Method in brief: as §1

[11] = tested on: SUDIPGXIII (diffuse intrinsic pontine glioma line); assay: as above
Method in brief: as §1

[12] = tested on: SUDIPGXVII (diffuse intrinsic pontine glioma line); assay: as above
Method in brief: as §1

[13] = tested on: SUDIPGVI; assay: area under dose-response curve of % growth inhibition (log2 RLU vs DMSO / staurosporine), 1e-11 to 1e-4 M (% x log10 M); higher = more growth inhibition
Method in brief: (§2)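 A 10-point threefold dilution series, mean top concentration 35 μM, was applied in triplicate to patient-derived pHGG/DIPG lines and astrocytes on 1% Geltrex-coated 384-well plates for 7 days (3 days for iAstro) at 37 °C, 5% CO2. Per-plate % activity between solvent and positive controls was calculated from log2-transformed CellTiter-Glo luminescence. Area under the curve followed from the trapezoid rule on a log-logistic fit, or on a smoothing spline when the sigmoid fit failed.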

[14] = tested on: DIPGX7; assay: as above
Method in brief: as §2

[15] = tested on: SUDIPGXXI (diffuse intrinsic pontine glioma line); assay: as above
Method in brief: as §2

[16] = tested on: HGGX6; assay: as above
Method in brief: as §2

[17] = tested on: HABS; assay: as above
Method in brief: as §2

[18] = tested on: DIPGX9; assay: as above
Method in brief: as §2

[19] = tested on: HGGX39; assay: as above
Method in brief: as §2

[20] = tested on: DIPGX29; assay: as above
Method in brief: as §2

[21] = tested on: iAstro (astrocyte control); assay: as above
Method in brief: as §2

[22] = tested on: HGGX2 (paediatric high-grade glioma line); assay: as above
Method in brief: as §2

[23] = tested on: SUDIPGXIX; assay: as above
Method in brief: as §2

[24] = tested on: SUDIPGIV; assay: as above
Method in brief: as §2

[25] = tested on: HGGX42 (H3.3 G34R paediatric high-grade glioma line); assay: as above
Method in brief: as §2

[26] = tested on: DIPGX37; assay: as above
Method in brief: as §2

[27] = tested on: SUDIPGXIII; assay: as above
Method in brief: as §2

[28] = tested on: SUDIPGXVII; assay: as above
Method in brief: as §2

[29] = tested on: SUDIPGVI; assay: maximal growth inhibition (yFin) relative to DMSO / staurosporine; higher = more efficacious
Method in brief: as §1

[30] = tested on: DIPGX7; assay: as above
Method in brief: as §1

[31] = tested on: HGGX6; assay: as above
Method in brief: as §1

[32] = tested on: HABS; assay: as above
Method in brief: as §1

[33] = tested on: DIPGX9; assay: as above
Method in brief: as §1

[34] = tested on: HGGX39; assay: as above
Method in brief: as §1

[35] = tested on: DIPGX29; assay: as above
Method in brief: as §1

[36] = tested on: SUDIPGXIX; assay: as above
Method in brief: as §1

[37] = tested on: SUDIPGIV; assay: as above
Method in brief: as §1

[38] = tested on: DIPGX37; assay: as above
Method in brief: as §1

[39] = tested on: SUDIPGXIII; assay: as above
Method in brief: as §1

[40] = tested on: SUDIPGXVII; assay: as above
Method in brief: as §1

[41] = tested on: HGGX2; assay: EC50 (inflection of fitted growth-inhibition curve) (log10 M)
Method in brief: as §1

[42] = tested on: HGGX42; assay: as above
Method in brief: as §1

[43] = tested on: HGGX2; assay: maximal growth inhibition (yFin) relative to DMSO / staurosporine; higher = more efficacious
Method in brief: as §1

[44] = tested on: HGGX42; assay: as above
Method in brief: as §1

[45] = tested on: iAstro; assay: EC50 (inflection of fitted growth-inhibition curve) (log10 M)
Method in brief: as §1

[46] = tested on: iAstro; assay: maximal growth inhibition (yFin) relative to DMSO / staurosporine; higher = more efficacious
Method in brief: as §1

CC(C)c1cc(-c2n[nH]c(=O)n2-c2ccc3c(ccn3C)c2)c(O)cc1O [GANETESPIB]
EC50 (log10 M) [1]: -7.86
EC50 (log10 M) [2]: -6.1
EC50 (log10 M) [3]: -7.85
EC50 (log10 M) [4]: -7.9
EC50 (log10 M) [5]: -7.98
EC50 (log10 M) [6]: -7.51
EC50 (log10 M) [7]: -7.76
EC50 (log10 M) [8]: -8.72
EC50 (log10 M) [9]: -8.08
EC50 (log10 M) [10]: -7.76
EC50 (log10 M) [11]: -7.84
EC50 (log10 M) [12]: -7.92
area under dose-response curve [13]: 158
area under dose-response curve [14]: 106
area under dose-response curve [15]: 432
area under dose-response curve [16]: 153
area under dose-response curve [17]: 329
area under dose-response curve [18]: 440
area under dose-response curve [19]: 271
area under dose-response curve [20]: 195
area under dose-response curve [21]: 164
area under dose-response curve [22]: 257
area under dose-response curve [23]: 395
area under dose-response curve [24]: 238
area under dose-response curve [25]: 226
area under dose-response curve [26]: 306
area under dose-response curve [27]: 215
area under dose-response curve [28]: 242
maximal growth inhibition [29]: 41.2%
maximal growth inhibition [30]: 44.1%
maximal growth inhibition [31]: 39.8%
maximal growth inhibition [32]: 84.5%
maximal growth inhibition [33]: 114%
maximal growth inhibition [34]: 77.3%
maximal growth inhibition [35]: 51.8%
maximal growth inhibition [36]: 87.3%
maximal growth inhibition [37]: 58.4%
maximal growth inhibition [38]: 81.5%
maximal growth inhibition [39]: 56%
maximal growth inhibition [40]: 61.6%

N#CN=C(NCCCCCCOc1ccc(Cl)cc1)Nc1ccncc1 [GMX-1778]
EC50 (log10 M) [1]: -7.79
EC50 (log10 M) [2]: -7.31
EC50 (log10 M) [3]: -7.85
EC50 (log10 M) [4]: -7.62
EC50 (log10 M) [5]: -8.21
EC50 (log10 M) [6]: -7.85
EC50 (log10 M) [41]: -8.25
EC50 (log10 M) [8]: -7.5
EC50 (log10 M) [9]: -7.21
EC50 (log10 M) [42]: -7.48
EC50 (log10 M) [10]: -8.03
EC50 (log10 M) [11]: -7.54
EC50 (log10 M) [12]: -7.44
area under dose-response curve [13]: 354
area under dose-response curve [14]: 380
area under dose-response curve [15]: 587
area under dose-response curve [16]: 288
area under dose-response curve [17]: 275
area under dose-response curve [18]: 267
area under dose-response curve [19]: 287
area under dose-response curve [20]: 465
area under dose-response curve [21]: 314
area under dose-response curve [22]: 426
area under dose-response curve [23]: 444
area under dose-response curve [24]: 333
area under dose-response curve [25]: 315
area under dose-response curve [26]: 311
area under dose-response curve [27]: 335
area under dose-response curve [28]: 245
maximal growth inhibition [29]: 93.6%
maximal growth inhibition [30]: 114%
maximal growth inhibition [31]: 74.7%
maximal growth inhibition [32]: 76%
maximal growth inhibition [33]: 63.3%
maximal growth inhibition [34]: 74.6%
maximal growth inhibition [43]: 103%
maximal growth inhibition [36]: 127%
maximal growth inhibition [37]: 104%
maximal growth inhibition [44]: 90.6%
maximal growth inhibition [38]: 77.2%
maximal growth inhibition [39]: 94.5%
maximal growth inhibition [40]: 71.3%

CC[C@]1(O)C[C@H]2CN(CCc3c([nH]c4ccccc34)[C@@](C(=O)OC)(c3cc4c(cc3OC)N(C=O)[C@H]3[C@@](O)(C(=O)OC)[C@H](OC(C)=O)[C@]5(CC)C=CCN6CC[C@]43[C@@H]65)C2)C1 [VINCRISTINE]
EC50 (log10 M) [1]: -7.28
EC50 (log10 M) [2]: -5.71
EC50 (log10 M) [45]: -5.97
EC50 (log10 M) [41]: -7.75
EC50 (log10 M) [8]: -6.46
EC50 (log10 M) [9]: -6.56
EC50 (log10 M) [42]: -4.84
EC50 (log10 M) [11]: -5.77
area under dose-response curve [13]: 256
area under dose-response curve [14]: 212
area under dose-response curve [15]: 606
area under dose-response curve [16]: 99.2
area under dose-response curve [17]: 200
area under dose-response curve [18]: 292
area under dose-response curve [19]: 152
area under dose-response curve [20]: 163
area under dose-response curve [21]: 127
area under dose-response curve [22]: 345
area under dose-response curve [23]: 253
area under dose-response curve [24]: 284
area under dose-response curve [25]: 103
area under dose-response curve [26]: 189
area under dose-response curve [27]: 123
area under dose-response curve [28]: 187
maximal growth inhibition [29]: 77.9%
maximal growth inhibition [30]: 95.3%
maximal growth inhibition [46]: 61.4%
maximal growth inhibition [43]: 92.8%
maximal growth inhibition [36]: 98.2%
maximal growth inhibition [37]: 101%
maximal growth inhibition [44]: 97.3%
maximal growth inhibition [39]: 64%

From the supplement of paper PMC8253809
